Like-named read-outs stand apart in the source and are kept apart here.
Legend:
[1] = Release of labeled macromolecule and labeled polymer backbone from degrading gel network; assay type: physicochemical; details: pH 7.3, 37° C., monitored at 550 nm (FIG. 7)
Source text: Gels were formed by the same method as above, but in this case other compounds were included during the preparation of the gels to study the release of small molecules from the network. In one case, the network itself was labeled with a polymerizable derivative of tetramethyl rhodamine (TMRAHMAm) in order to show the release (degradation) of the network itself (see FIG. 6). In the other case fluorescent rhodamine labeled albumin (Molecular Probes, Eugene Oreg.) was included in the uncharged network to show diffusive release of a macromolecule from the network (see FIG. 7).
To a 3 mL test tube was charged TMRAHMAm (3.0 mg, 5.0 μmol; 30 μL of a 100 mg/mL solution in CHCl3) which was then placed under a 7 mtorr vacuum for 3 hours. […]
Gels were suspended in buffers of different pH's: All buffers were adjusted to the same ionic strength. The release of the rhodamine labeled albumin and the rhodamine labeled HPMA was monitored at 550 nm. 750 μL of the sample was removed from the vial and periodically measured on a spectrophotometer. […]
The examination of the release of macromolecules entrained in the polymer network provides another way to study the performance of these materials. […] Moreover, the release of a model macromolecular solute (TMRA-albumin, molecular weight of ^˜66,000 Da.) from the network is measured spectrophotometrically.

[2] = pH 7.3
Protocol: (§1) The gels in this section were made at a mole feed ratio of 1.5 mole % cross-linker, as a copolymer with 98.5 mole % HPMA. Before the gels were polymerized, three 1.0 mL plastic syringes to be used as a slab gel template were silylanized by briefly incubating them in a heptane solution containing Sigmacote and oven drying at 90° C.
(§2) The wire was held in place by a septa which was placed over the tip of the syringe, as the solution polymerized. This formed a hole in the center of the cylinder, which was later used as a place to insert a wire hanger for the initially brittle and finally fragile gel, in order to measure its swelling and degradation kinetics as a change of mass with time. Gelation occurred within one to five minutes and the syringe was allowed to sit for 4 hours at room temperature. At this point the wire was removed from the center of the solid and the end of the plastic syringe was removed with a razor blade. The plunger was then used to extrude the gel from the syringe in 100 μL increments which were cut into small cylinders as they hung out from the end of the syringe. The gels were then placed on tarred wire holders and the initial mass of the assembly was determined. The resulting clear isotropic gels had the composition of poly(HPMA-co-HPMAGlySuc) 98.5:1.5. The gels were then incubated in pH 5, 100 mM sodium acetate buffer for 24 hours. They were then charged into vials of differing pH to study the degradation kinetics.
(§3) The gels were placed in 15 mL vials containing 10 mL of buffers. The masses of wire holders were determined before the gels were placed on them. The original mass of the gel in its relaxed state was also known by subtraction from the total mass of the assembly. The original dry mass of the gel was determined by drying three gels in their relaxed state from each composition and determining the dry mass of the gel. These values were then used to calculate the inverse of the volume fraction of polymer in the gel (Qv) respectively, using the densities of the polymer and water. The incubation solutions were changed each time the gel was weighed. The gels were incubated in a gyratory water-bath shaker (New Brunswick Scientific, New Brunswick, N.J.). The temperature was regulated to be 37±2° C. and the shaker was set to 30 rotations per minute.
(§4) The property of the change of volume of the polymer network can be measured by weighing the gel at different time points.
(§5) Since the swelling is related to network cross-link density by weighing the macroscopic gels at various times throughout their swelling one can obtain information about the change in cross-link density and thus the rate of degradation.

[3] = Swelling of acrylic acid / cross-linker water absorbent gel in PBS; assay type: physicochemical; details: acrylic acid gel cross-linked with HPMAGlySuc, after incubating in PBS pH 7.4 for 3 days
Protocol: To a 5 mL test tube was charged acrylic acid (675 μL, 9.85 mmol), water (1120 μL) and HPMAGlySuc (73 mg, 0.15 mmol) (5b). The cross-linker was weighed into the mixture as described earlier. The mixture was homogenized and APS was added (66.6 μL, […]) from a 2.43 M solution in water. This solution was again mixed. To this solution was added TMED (137 μL, 0.287 mmol) from a 2.10 M pH 7.0 solution in water. The mixture was vortexed rapidly for 15 seconds and the polymerizing solution was charged into two 1.0 mL syringes that acted as a mold for the polymerization. The syringes were allowed to sit for four hours. The gel was removed from the syringe and cut into pieces (^˜100 μL cylinders). The mass of the cylinder was recorded and placed in a 20 mL vial containing 18 mL of PBS at pH 7.4. The gels were incubated overnight with buffer. The next day the buffer was changed twice in order to keep a constant external pH as the gel was charged. After incubating in PBS for 3 days the gel has swollen with water to approximately 20 times the total initial polymer volume.

[4] = Degradation (degradative swelling) of HPMA-co-cross-linker hydrogels in buffer; details: HPMA-co-XL gels, 1.5 mole % cross-linker, pH 7.3 buffer, 37° C.
Protocol: as §1, §2, §3, §4, §5

## C=C(C)C(=O)NCC(C)OC(=O)COC(=O)COC(=O)CCC(=O)OCC(=O)OCC(=O)OC(C)CNC(=O)C(=C)C (stereo not shown) [HPMAGlyGlySuc, di[({[1-methyl-2-(2-methylprop-2-enoylamino)ethyl]oxycarbon-yl}methyl)oxycarbonyl]methylbutane-1,4-dioate]
[1]
  release of rhodamine labeled HPMA polymer backbone: largely occurs to the greatest extent at the onset of complete degradation of the polymer
  release of rhodamine labeled albumin from the gel network: more closely follows the swelling of the network
[2]
  degradation / hydrolysis and swelling kinetics of the gel (in words): fastest hydrolysis and swelling kinetics
  time to complete degradation of the gel: about 5 days

## C=C(C)C(=O)NCC(C)OC(=O)COC(=O)CCC(=O)OCC(=O)OC(C)CNC(=O)C(=C)C (stereo not shown) [HPMAGlySuc, di{[1-methyl-2-(2-methylprop-2-enoylamino)ethyl]oxycarbonyl}methyl butane-1,4-dioate]
[3]
  swelling with water relative to total initial polymer volume: approximately 20 times the total initial polymer volume

## C=C(C)C(=O)NCC(C)OC(=O)[C@H](C)OC(=O)CCC(=O)O[C@@H](C)C(=O)OC(C)CNC(=O)C(=C)C (stereo partly drawn) [HPMALacSuc, di(1S)-1-{[1-methyl-2-(2-methylprop-2-enoylamino)ethyl]oxycarbonyl}ethyl butane-1,4-dioate]
[4]
  degradation / hydrolysis and swelling kinetics of the gel (in words): slower degradation than the glycolic

## C=C(C)C(=O)NCC(C)OC(=O)CCC(=O)OC(C)CNC(=O)C(=C)C (stereo not shown) [HPMASuc, bis-1-methyl-2-(2-methylprop-2enoylamino)ethyl-1,4-butanedioate, reference compound]
[4]
  degradation / hydrolysis and swelling kinetics of the gel (in words): non-degradable

Source: US6521431B1, “Biodegradable cross-linkers having a polyacid connected to reactive groups for cross-linking polymer filaments” (Access Pharmaceuticals, Inc., priority 1999, dated 2003)
